Structures are written as SMILES.

The test system of the first experiment is Eimeria tenella. The experiment can be described thus: Anticoccidial activity against Eimeria tenella using amprolium resistant strain at a concentration of 0.00175% drug in feed. It counts as functional.
`NS(=O)(=O)c1cncc([N+](=O)[O-])c1` returned an Activity of 158.

In the next experiment the test system is Eimeria tenella. Kind of experiment: Anticoccidial activity against Eimeria tenella using amprolium resistant strain at a concentration of 0.0035% drug in feed. It counts as functional.
As for `NS(=O)(=O)c1cncc([N+](=O)[O-])c1`, the Activity is 194.
On the same count and under the same terms, the same measure for `NC(=O)c1cncc([N+](=O)[O-])c1`: 158.

The next experiment deals with Eimeria tenella. The experiment can be described thus: Anticoccidial activity against Eimeria tenella using amprolium resistant strain at a concentration of 0.007% drug in feed. It is filed as functional.
With `NS(=O)(=O)c1cncc([N+](=O)[O-])c1`, the Activity is 195.
Turning to `NC(=O)c1cncc([N+](=O)[O-])c1`, the Activity came out at 186.

Another experiment deals with Eimeria tenella. Kind of experiment: Anticoccidial activity against Eimeria tenella using amprolium resistant strain at a concentration of 0.015% drug in feed. It is filed as functional.
In the case of `CCCCN(CC)S(=O)(=O)c1cncc([N+](=O)[O-])c1`, the Activity is reported as 175.
On the same count and under the same terms, with `CN(C)S(=O)(=O)c1cncc([N+](=O)[O-])c1` the figure was 175; with `CCOCCN(CC)S(=O)(=O)c1cncc([N+](=O)[O-])c1`, 178.
On the same count and under the same terms, with `CNS(=O)(=O)c1cncc([N+](=O)[O-])c1` the figure was 195; with `O=[N+]([O-])c1cncc(S(=O)(=O)NCc2ccccc2)c1`, 168.
On the same count and under the same terms, the same measure for `CC(C)(C)C(=O)NS(=O)(=O)c1cncc([N+](=O)[O-])c1`: 122.
`CCCCCCCC(=O)NS(=O)(=O)c1cncc([N+](=O)[O-])c1` registered an Activity of 187.
Still for that read-out and setting: with `NS(=O)(=O)c1ccc[n+]([O-])c1` the figure was 160.
On the same count and under the same terms, the same measure for `O=[N+]([O-])c1cncc(S(=O)(=O)Nc2ccccc2)c1`: 86; for `NS(=O)(=O)c1ncccc1[N+](=O)[O-]`: 55; for `NS(=O)(=O)c1ccc([N+](=O)[O-])nc1`: 120.
Take `NS(=O)(=O)c1cccnc1[N+](=O)[O-]`: the Activity stood at 144.
`NS(=O)(=O)c1cnccc1[N+](=O)[O-]` returned an Activity of 144.
The same measure, in the same setting: with `CCOCCNS(=O)(=O)c1cncc([N+](=O)[O-])c1` the figure was 192.
Same read-out and setting: the same measure for `NS(=O)(=O)c1cncc([N+](=O)[O-])c1`: 194.
On the same count and under the same terms, the same measure for `CCNS(=O)(=O)c1cncc([N+](=O)[O-])c1`: 190.
For `CCCCCCCCNS(=O)(=O)c1cncc([N+](=O)[O-])c1`, the Activity was 126.
The same measure, in the same setting: the same measure for `NC(=O)c1cncc([N+](=O)[O-])c1`: 198.
`CC(=O)NS(=O)(=O)c1cncc([N+](=O)[O-])c1` returned an Activity of 186.
On the same count and under the same terms, with `NS(=O)(=O)c1cc[n+]([O-])cc1` the figure was 120; with `NS(=O)(=O)c1cccc[n+]1[O-]`, 183.
As for `O=[N+]([O-])c1cncc(S(=O)(=O)NCCO)c1`, the Activity amounted to 120.
Same read-out and setting: with `NS(=O)(=O)c1ccc([N+](=O)[O-])cn1` the figure was 32.
`NS(=O)(=O)c1cccc([N+](=O)[O-])n1`: the Activity was determined as 120.
Still for that read-out and setting: the same measure for `NS(=O)(=O)c1cc([N+](=O)[O-])ccn1`: 107.
Same read-out and setting: the same measure for `CC(C)OCCCNS(=O)(=O)c1cncc([N+](=O)[O-])c1`: 193.
The same measure, in the same setting: the same measure for `CCCc1ncc(C[n+]2ccccc2C)c(N)n1.[Cl-]`: 95.

The values above are taken from ChEMBL document CHEMBL1121588, “Studies on anticoccidial agents. 13. Synthesis and anticoccidial activity of nitropyridine-2- and -3-sulfonamides and derivatives” (1980).
